# Laboratory results published in patent US8871227B2, “Process and formulation containing epothilones and analogs thereof” (Bristol-Myers Squibb Company, priority 2003, dated 2014).
# Tests used:
# Assay type in all cases: physicochemical
# [1] = Stability of aqueous solution: time for 5% drug loss (t95); details: 25°
# Protocol: The compounds represented by formulae I and II present challenges from the viewpoint of pharmaceutical compounding for administration to patients for a number of reasons. […] Of particular concern with the present invention, compounds of formulae I and II can degrade when exposed to low pH, e.g., certain compounds of formula I presumably are susceptible to acids catalyzed hydrolysis. For example, the time for 5% drug loss (t95) at 25° for an aqueous solution of compound II is approximately 2 h at pH 7, but less than 0.2 h at pH 2.5.
# pH of maximum stability = assay: pH of maximum stability
# Excerpt: The term, “pH of maximum stability,” or “maximum stability pH” means the pH at which a compound (or mixture of compounds) is least likely to degrade, or at which the compound (or mixtures of compounds) will degrade most slowly. Each compound or mixture of compounds will have a pH of maximum stability. However, the pH of maximum stability also may encompass a range of pH's. […] In this case, the pH of maximum stability is 7.1±1.
# For example, in the embodiment involving use of the epothilone analog of formula II, the pH of maximum stability is about 7.0. A preferred dose of this epothilone analog when diluted in the infusion fluid is approximately in the range of about 0.05 to about 1.0 mg/mL, more preferably in the range of about 0.1 to about 0.8 mg/mL, and most preferably in the range of about 0.2 to about 0.6 mg/mL. The inventors herein have determined that for this epothilone analog and preferred dose, an advantageous buffer is sodium lactate, and a preferred concentration of this buffer in the formulation for administration is in the range of about 3 to about 30 mg/mL, more preferably in the range of about 10 to about 20 mg/mL, even more preferably at a concentration of about 15 mg/mL. […]
# [2] = Infusion stability: loss of potency over six hour hold time after dilution in infusion fluid; details: for loss of potency (degradation of active compound) / loss of potency (degradation in active compound): 0.2 mg/mL; for loss of potency (degradation of active compound): with buffer and base; for loss of potency (degradation in active compound): without buffer and base
# Protocol: To illustrate the surprising advantages of the invention, a formulation including the compound of formula II was diluted in a 0.9% Sodium Chloride Injection infusion fluid to a concentration of 0.2 mg/mL, without buffer and base. […] As a further illustration, a formulation including the compound of formula II was diluted in a 5% dextrose injection fluid to a concentration of 0.2 mg/mL, without buffer and base.
# [3] = Degradation during dissolution and lyophilization; details: tertiary butanol/water 1:1, lyophilized at −30° C. about 100 hours, dried at 25° C. about 35 hours, light protected
# Protocol: [1S-[1R*,3R*(E),7R*,10S*,11R*,12R*,16S*]]-7,11-Dihydroxy-8,8,10,12,16-pentamethyl-3-[1-methyl-2-(2-methyl-4-thiazolyl)ethenyl]-4-aza-17-oxabicyclo[14.0]heptadecane-5,9-dione, 4.04 g, was wetted/partially dissolved with 500 mL of a 4:1 mixture of tertiary butanol and Water for Injection USP which had been pre-cooled to 5° C. Once the drug powder had become completely wetted, dissolution was completed by the addition of […] Water for Injection, thereby making the final solution a 1:1 mixture. The dissolution was carried out under protection from light.
# The solution formed above was promptly lyophilized in a Virtis GENESIS lyophilizer at −30° C. under light protected conditions over a period of about 100 hours. The resultant lyophilized product (lyophile) was then further dried at 25° C. under high vacuum for about 35 hours. […] The lyophile was packaged under sterile conditions into 15 mL vials, each containing 20 mg of drug and standard excess to allow for vial/needle/syringe loss.
compound,measurement,setting,value
"C/C(=C\c1csc(C)n1)C1CC2O[C@]2(C)CCC[C@H](C)[C@H](O)[C@@H](C)C(=O)C(C)(C)[C@@H](O)CC(=O)N1 (relative stereo) [II, [1S-[1R*,3R*(E),7R*,10S*,11R*,12R*,16S*]]7,11-Dihydroxy-8,8,10,12,16-pentamethyl-3-[1-methyl-2-(2-methyl-4-thiazolyl)ethenyl]-4-aza-7oxabicyclo[14.1.0]heptadecane-5,9-dione]",time for 5% drug loss (t95),[1]; pH 2.5,less than 0.2 h
same,time for 5% drug loss (t95),[1]; pH 7,approximately 2 h
same,pH of maximum stability,pH of maximum stability,about 7.0
same,loss of potency (degradation of active compound),[2]; 0.9% Sodium Chloride Injection,about 3.6%
same,loss of potency (degradation in active compound),[2]; 0.9% Sodium Chloride Injection,about 6%
same,enhancement in stability,"[2]; 0.9% Sodium Chloride Injection, with vs without buffer and base",approximately 40%
same,loss of potency (degradation of active compound),[2]; 5% dextrose injection fluid,about 4%
same,loss of potency (degradation in active compound),[2]; 5% dextrose injection fluid,about 13%
same,enhancement of stability,"[2]; 5% dextrose injection fluid, with vs without buffer and base",greater than 65%
same,"degradation of the drug during dissolution, lyophilization and drying",[3],No detectable degradation
